Here are results for twelve compounds from ChEMBL document CHEMBL5390315, “Targeted Protein Degradation of Histone Deacetylases by Hydrophobically Tagged Inhibitors” (ACS Med Chem Lett, 2023).

In experiment [1] the test system is MM1.S. Nature of the experiment: Antiproliferative activity against human MM.1S cells assessed as inhibition of cell growth at upto 100 uM incubated for 72 hrs by microplate photometer analysis. In kind it is functional, cell-based.
The subject of experiment [2] is MM1.S. As to the kind of experiment: cells. The experiment is classed as functional, cell-based. The following applies: Homo sapiens, 72 h.
Description: Antiproliferative activity against human MM.1S cells assessed as inhibition of cell growth incubated for 72 hrs by microplate photometer analysis
For another experiment, the target named is Histone deacetylase. As to the kind of experiment: Inhibition of human recombinant HDAC in human MM.1S cells using Boc-Lys(Epsilon-Ac)-AMC as substrate preincubated for 18 hrs followed by substrate addition and measured after 3 hrs by microplate reader analysis. The experiment is classed as cell-based. The following applies: mm1.s.
Experiment [3] has as its target T1, Histone deacetylase 1 (Homo sapiens, UniProt Q13547). As to the kind of experiment: Inhibition of C-terminal 6His tagged human recombinant full length HDAC1 (1 to 482 residues) using Z- Lys(Ac)-AMC as fluorogenic substrate incubated for 90 mins followed by trypsin addition and measured after 30 min by microplate reader analysis.
The target in experiment [4] is T2, Histone deacetylase 2 (Homo sapiens, UniProt Q92769).
Description: Inhibition of C-terminal flag tagged human recombinant full length HDAC2 (1 to 488 residues) using Z- Lys(Ac)-AMC as fluorogenic substrate incubated for 90 mins followed by trypsin addition and measured after 30 min by microplate reader analysis
Experiment [5] addresses T3, Protein deacetylase HDAC6 (Homo sapiens, UniProt Q9UBN7).
T3 sequence (Q9UBN7 whole entry): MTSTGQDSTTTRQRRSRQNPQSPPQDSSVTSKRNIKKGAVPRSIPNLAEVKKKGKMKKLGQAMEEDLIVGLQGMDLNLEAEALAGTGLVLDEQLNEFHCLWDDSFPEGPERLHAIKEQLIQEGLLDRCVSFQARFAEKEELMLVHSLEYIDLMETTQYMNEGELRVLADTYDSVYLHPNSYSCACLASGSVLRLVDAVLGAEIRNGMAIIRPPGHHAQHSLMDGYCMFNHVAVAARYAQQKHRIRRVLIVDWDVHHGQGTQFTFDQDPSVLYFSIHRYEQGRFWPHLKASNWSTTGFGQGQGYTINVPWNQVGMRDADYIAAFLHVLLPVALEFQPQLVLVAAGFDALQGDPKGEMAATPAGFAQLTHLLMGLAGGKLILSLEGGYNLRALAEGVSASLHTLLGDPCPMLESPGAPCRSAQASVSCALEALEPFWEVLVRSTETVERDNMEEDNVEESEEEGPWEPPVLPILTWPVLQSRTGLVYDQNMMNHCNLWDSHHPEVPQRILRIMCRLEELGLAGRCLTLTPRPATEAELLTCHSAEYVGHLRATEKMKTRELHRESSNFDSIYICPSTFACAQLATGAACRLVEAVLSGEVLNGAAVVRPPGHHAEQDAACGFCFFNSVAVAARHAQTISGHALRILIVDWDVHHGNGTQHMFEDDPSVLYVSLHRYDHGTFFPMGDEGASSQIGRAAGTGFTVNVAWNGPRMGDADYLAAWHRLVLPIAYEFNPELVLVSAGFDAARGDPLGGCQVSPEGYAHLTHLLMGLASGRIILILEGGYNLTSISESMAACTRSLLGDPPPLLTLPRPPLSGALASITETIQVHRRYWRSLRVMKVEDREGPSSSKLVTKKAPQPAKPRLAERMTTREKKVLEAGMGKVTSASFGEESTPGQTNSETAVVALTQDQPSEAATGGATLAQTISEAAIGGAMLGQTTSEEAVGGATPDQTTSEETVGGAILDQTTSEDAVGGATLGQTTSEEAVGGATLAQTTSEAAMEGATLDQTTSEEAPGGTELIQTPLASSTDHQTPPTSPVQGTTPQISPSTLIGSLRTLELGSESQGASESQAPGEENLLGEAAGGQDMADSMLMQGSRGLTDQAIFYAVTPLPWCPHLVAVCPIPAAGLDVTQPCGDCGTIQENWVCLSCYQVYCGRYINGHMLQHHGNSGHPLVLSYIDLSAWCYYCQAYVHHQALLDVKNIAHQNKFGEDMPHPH
Nature of the experiment: Inhibition of C-terminal GST tagged human recombinant full length HDAC6 (1 to 1215 residues) using Z- Lys(Ac)-AMC as fluorogenic substrate incubated for 90 mins followed by trypsin addition and measured after 30 min by microplate reader analysis.

Experiment [6] concerns the target T1, Histone deacetylase 1. As to the kind of experiment: Induction of HDAC1 degradation in human MM1.S cells at 20 uM incubated for 24 hrs by immunoblot analysis. The experiment is classed as cell-based.
For experiment [7], the target named is T4, Protein deacetylase HDAC6 (Homo sapiens) (UniProt Q9UBN7).
T4 sequence (whole entry): T3 sequence (Q9UBN7 whole entry)
Nature of the experiment: Induction of HDAC6 degradation in human MM1.S cells at 20 uM incubated for 24 hrs by immunoblot analysis. The experiment is classed as cell-based. A general note: A western blot detects proteins with antibodies after separation by electrophoresis.

The target in experiment [8] is Histone deacetylase 4 (Homo sapiens) (UniProt P56524). Nature of the experiment: Inhibition of N-terminal GST/C-terminal His-tagged human recombinant HDAC4 (627 to 1084 residues) expressed in baculovirus expression system using Boc-Lys(Tfa)-AMC as fluorogenic substrate at 10 uM incubated for 90 min followed by trypsin addition and measured after 30 min by microplate reader analysis. The following applies: time 120.0 min.

Experiment [9] shares this target. As to the kind of experiment: Induction of HDAC4 degradation in human MM1.S cells at 20 uM incubated for 24 hrs by immunoblot analysis. The experiment is classed as cell-based.
Experiment [10] concerns the target T1, Histone deacetylase 1. As to the kind of experiment: Induction of HDAC1 degradation in human MM1.S cells at 20 uM incubated for 24 hrs in the presence of MG132 by immunoblot analysis. In kind it is cell-based.
Experiment [11] relates to MM1.S. As to the kind of experiment: Induction of apoptosis in human MM1.S cells assessed as early apoptosis at 20 uM incubated for 48 hrs by Annexin V-FITC/PI staining based flow cytometry. The experiment is classed as functional, cell-based.
The subject of experiment [12] is MM1.S. As to the kind of experiment: Induction of apoptosis in human MM1.S cells assessed as late apoptosis at 20 uM incubated for 48 hrs by Annexin V-FITC/PI staining based flow cytometry. In kind it is functional, cell-based. (In general: A flow cytometer gives signals particle by particle.)
Experiment [13] has as its target T1, Histone deacetylase 1. As to the kind of experiment: Induction of HDAC1 degradation in human MM1.S cells incubated for 24 hrs by immunoblot analysis. The experiment is classed as cell-based.
The target in experiment [14] is T2, Histone deacetylase 2. As to the kind of experiment: Induction of HDAC2 degradation in human MM1.S cells at 20 uM incubated for 24 hrs by immunoblot analysis. The experiment is classed as cell-based.

SMILES strings stand for the structures. Calls of active or inactive are those of the source. The calls are words filed in the database; no cut-off is given here.

T1 sequence (Q13547 whole entry, the tested form may be a part): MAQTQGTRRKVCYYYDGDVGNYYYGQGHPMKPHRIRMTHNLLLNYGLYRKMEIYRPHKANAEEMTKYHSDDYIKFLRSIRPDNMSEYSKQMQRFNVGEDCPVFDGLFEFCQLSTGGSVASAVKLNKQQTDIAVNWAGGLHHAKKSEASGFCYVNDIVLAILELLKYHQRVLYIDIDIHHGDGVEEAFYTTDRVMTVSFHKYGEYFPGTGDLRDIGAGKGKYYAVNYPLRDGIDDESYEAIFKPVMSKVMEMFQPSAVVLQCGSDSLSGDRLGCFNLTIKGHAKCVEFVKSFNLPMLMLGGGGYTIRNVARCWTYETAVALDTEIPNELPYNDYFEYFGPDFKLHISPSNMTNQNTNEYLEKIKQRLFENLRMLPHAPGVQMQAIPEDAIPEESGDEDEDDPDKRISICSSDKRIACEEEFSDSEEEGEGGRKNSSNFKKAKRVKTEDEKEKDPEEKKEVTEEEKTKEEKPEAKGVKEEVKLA
Histone deacetylase 4 (Homo sapiens), sequence (P56524 whole entry, the tested form may be a part): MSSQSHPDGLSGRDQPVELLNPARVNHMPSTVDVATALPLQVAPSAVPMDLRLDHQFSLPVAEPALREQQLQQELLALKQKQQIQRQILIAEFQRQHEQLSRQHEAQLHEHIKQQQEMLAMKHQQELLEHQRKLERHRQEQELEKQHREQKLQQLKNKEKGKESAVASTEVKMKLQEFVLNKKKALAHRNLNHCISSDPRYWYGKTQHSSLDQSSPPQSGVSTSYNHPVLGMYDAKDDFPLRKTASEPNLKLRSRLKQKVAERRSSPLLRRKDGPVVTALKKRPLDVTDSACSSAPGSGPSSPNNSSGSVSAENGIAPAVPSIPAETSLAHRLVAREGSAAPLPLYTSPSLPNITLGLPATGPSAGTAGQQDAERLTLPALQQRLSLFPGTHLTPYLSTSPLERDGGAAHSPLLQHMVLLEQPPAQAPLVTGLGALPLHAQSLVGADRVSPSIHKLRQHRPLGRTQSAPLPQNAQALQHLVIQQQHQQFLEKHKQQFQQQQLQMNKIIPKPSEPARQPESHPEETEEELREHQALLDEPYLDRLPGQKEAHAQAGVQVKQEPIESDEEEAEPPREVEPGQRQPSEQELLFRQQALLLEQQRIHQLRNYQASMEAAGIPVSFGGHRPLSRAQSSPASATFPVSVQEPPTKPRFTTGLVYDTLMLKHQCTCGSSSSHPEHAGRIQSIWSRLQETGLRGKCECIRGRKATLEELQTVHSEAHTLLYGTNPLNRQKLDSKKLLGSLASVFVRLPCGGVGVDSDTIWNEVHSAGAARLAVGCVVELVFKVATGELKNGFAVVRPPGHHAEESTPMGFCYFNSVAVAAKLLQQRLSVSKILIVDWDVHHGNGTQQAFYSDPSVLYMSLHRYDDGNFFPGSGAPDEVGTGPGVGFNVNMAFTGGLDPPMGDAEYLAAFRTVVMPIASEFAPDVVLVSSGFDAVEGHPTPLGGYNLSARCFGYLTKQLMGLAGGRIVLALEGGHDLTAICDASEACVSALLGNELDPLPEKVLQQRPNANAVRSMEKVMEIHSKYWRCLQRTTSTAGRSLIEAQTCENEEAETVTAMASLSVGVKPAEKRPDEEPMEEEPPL
T2 sequence (Q92769 whole entry): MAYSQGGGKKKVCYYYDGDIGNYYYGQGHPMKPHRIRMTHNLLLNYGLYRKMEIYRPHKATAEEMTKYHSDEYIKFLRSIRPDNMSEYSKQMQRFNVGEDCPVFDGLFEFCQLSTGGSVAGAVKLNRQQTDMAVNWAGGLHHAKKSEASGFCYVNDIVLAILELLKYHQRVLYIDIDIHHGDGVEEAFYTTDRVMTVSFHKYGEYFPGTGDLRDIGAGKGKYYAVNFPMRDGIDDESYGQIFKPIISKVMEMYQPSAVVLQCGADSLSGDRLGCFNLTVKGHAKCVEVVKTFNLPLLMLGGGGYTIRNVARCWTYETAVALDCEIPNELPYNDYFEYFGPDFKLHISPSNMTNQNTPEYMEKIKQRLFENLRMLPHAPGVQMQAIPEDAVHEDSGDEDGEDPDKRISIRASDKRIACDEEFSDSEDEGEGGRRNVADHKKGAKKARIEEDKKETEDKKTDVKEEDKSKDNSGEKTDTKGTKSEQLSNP

As for `O=C(CC12C[C@H]3C[C@@H](C1)C[C@@H](C2)C3)NCCOCCOCCCCCCn1cc(-c2ccc(C(=O)NCc3ccc(C(=O)NO)cc3)cc2)nn1`, in the experiment with MM1.S [1], the result was inactive.

A word on the IC50: it is the concentration that inhibits the measured activity by half. In the experiment with MM1.S [2], `O=C(CCCCCCNC(=O)c1ccc(NC(=O)CCCCCNC(=O)CC23C[C@H]4C[C@@H](C2)C[C@@H](C3)C4)cc1)NO` displayed a 50% inhibitory concentration (IC50) of 22800 nM.

Broadly, the Emax is the size of the effect at its maximum, as opposed to the concentration needed. As for `O=C(CCCCCCNC(=O)c1ccc(-c2cn(CCCCCCOCCOCCNC(=O)CC34C[C@H]5C[C@@H](C3)C[C@@H](C4)C5)nn2)cc1)NO`, the half-maximal inhibitory concentration (IC50) at Histone deacetylase is 1170 nM; in the experiment on MM1.S [2], 10300 nM; at Histone deacetylase 1 [3], 350 nM; at Histone deacetylase 2 [4], 434 nM; in experiment [5] it was 17.7 nM. Moreover, the result at Histone deacetylase 1 [6], with MM1.S [11] and in the experiment on MM1.S [12] was Active. In addition, the outcome (in experiment [7]; in experiment [9]; on Histone deacetylase 1 [10]) was inactive. In addition, the inhibition result in experiment [8] is “inactive”. The Emax on Histone deacetylase 1 [13] came out at 47%.

Consider `O=C(CCCCCCNC(=O)c1ccc(NC(=O)CC23C[C@H]4C[C@@H](C2)C[C@@H](C3)C4)cc1)NO`, for which the IC50 on Histone deacetylase is 1120 nM; with MM1.S [2], 3970 nM; on Histone deacetylase 1 [3], 192 nM; against Histone deacetylase 2 [4], 295 nM; in experiment [5], 5.2 nM. The result at Histone deacetylase 1 [6], at Histone deacetylase 2 [14], in the experiment with MM1.S [11] and in the experiment with MM1.S [12] was Active. For the same compound, the outcome in [7] and in [9] was inactive. Besides, the inhibition entry in experiment [8] is “inactive”. The same compound registered an Emax at Histone deacetylase 1 [13] of 47%.

Turning to `O=C(CCCCCCNC(=O)c1ccc(NC(=O)CC2c3ccccc3-c3ccccc32)cc1)NO`, the result in the experiment with MM1.S [1] was inactive.

For `O=C(CCCCCCNC(=O)c1ccc(NC(=O)CCCCCNC(=O)CC2c3ccccc3-c3ccccc32)cc1)NO`, in the experiment with MM1.S [1], the result was inactive.

As to `O=C(CCCCCCNC(=O)c1ccc(NC(=O)CNC(=O)CC2c3ccccc3-c3ccccc32)cc1)NO`, the IC50 came out at 540 nM on Histone deacetylase; 11600 nM with MM1.S [2]; 86.4 nM on Histone deacetylase 1 [3]; 157 nM on Histone deacetylase 2 [4]; 3.3 nM in experiment [5]. For the same compound, the outcome on Histone deacetylase 1 [6], in the experiment with MM1.S [11] and in the experiment with MM1.S [12] was Active. The result in experiment [7] and in [9] was inactive. In experiment [8], the inhibition result is “inactive”. The compound also returned an Emax at Histone deacetylase 1 [13] of 47%.

For `O=C(CCCCCCNC(=O)c1ccc(NC(=O)CNC(=O)CC23C[C@H]4C[C@@H](C2)C[C@@H](C3)C4)cc1)NO`, the half-inhibitory concentration (IC50) turned out to be 580 nM at Histone deacetylase; 7230 nM in the experiment on MM1.S [2]; 133 nM on Histone deacetylase 1 [3]; 246 nM at Histone deacetylase 2 [4]; 5.9 nM in experiment [5]. The outcome at Histone deacetylase 1 [6], at Histone deacetylase 2 [14], in the experiment on MM1.S [11] and in the experiment with MM1.S [12] was Active. Further, the outcome in experiment [7] and in experiment [9] was inactive. For the same compound, in experiment [8], the inhibition result is “inactive”. The compound further returned an Emax at Histone deacetylase 1 [13] of 47%.

`O=C(CCCCCCNC(=O)c1ccc(OCc2cn(CCCCCCOCCOCCNC(=O)CC34C[C@H]5C[C@@H](C3)C[C@@H](C4)C5)nn2)cc1)NO` gave a concentration for half-maximal inhibition (IC50) with MM1.S [2] of 48800 nM.

`O=C(CCCCCCNC(=O)c1ccc(NC(=O)CCCNC(=O)CC2c3ccccc3-c3ccccc32)cc1)NO` displayed a 50% inhibitory concentration (IC50) with MM1.S [2] of 68100 nM.

In turn, `O=C(CCCCCCNC(=O)c1ccc(NC(=O)CCCNC(=O)CC23C[C@H]4C[C@@H](C2)C[C@@H](C3)C4)cc1)NO` gave an IC50 in the experiment on MM1.S [2] of 23800 nM.

Take `O=C(CC12C[C@H]3C[C@@H](C1)C[C@@H](C2)C3)NCCOCCOCCCCCCn1cc(COc2ccc(C(=O)NCc3ccc(C(=O)NO)cc3)cc2)nn1`: the outcome in the experiment with MM1.S [1] was inactive.
